Tests used:
Plasmodium falciparum [1] = assay: Antiplasmodial activity against asexual blood-stage (ABS) CQ-sensitive Plasmodium falciparum D6 infected in human erythrocytes assessed as reduction in fluorescence measured after 72 hrs by Malaria SYBR Green I-based Fluorescence (MSF) assay; type: functional, organism-based; conditions: D6, Erythrocyte
Plasmodium falciparum [2] = assay: Antiplasmodial activity against asexual blood-stage (ABS) MDR Plasmodium falciparum Dd2 infected in human erythrocytes assessed as reduction in fluorescence measured after 72 hrs by Malaria SYBR Green I-based Fluorescence (MSF) assay; type: functional, organism-based; conditions: Dd2, Erythrocyte
Plasmodium falciparum [3] = assay: Antiplasmodial activity against asexual blood-stage (ABS) ATV-resistant clinical isolate Plasmodium falciparum Tm90-C2B infected in human erythrocytes assessed as reduction in fluorescence measured after 72 hrs by Malaria SYBR Green I-based Fluorescence (MSF) assay; type: functional, organism-based; conditions: Erythrocyte
HepG2 = assay: Cytotoxicity against human HepG2 cells assessed as cell viability measured after 48 hrs by MTT assay; type: functional, cell-based; conditions: HepG2, 48 h
Plasmodium cynomolgi [4] = assay: Antiplasmodial activity against hypnozoite Plasmodium cynomolgi B strain infected in Macaca mulatta hepatocytes incubated with sporozoite containing salivary gland homogenate obtained from dissected Anopheles dirus mosquitoes (infected with Plasmodium cynomolgi B strain) treatment started on day 4 post infection and continued daily for 4 days into fresh changed media until day 8 assessed as Liver stage (LS) activity by measuring prophylactic mode by immunofluorescent staining analysis; type: functional, organism-based; conditions: Hepatocyte
Plasmodium cynomolgi [5] = assay: Antiplasmodial activity against schizont Plasmodium cynomolgi B strain infected in Macaca mulatta hepatocytes incubated with sporozoite containing salivary gland homogenate obtained from dissected Anopheles dirus mosquitoes (infected with Plasmodium cynomolgi B strain) treatment started on day 4 post infection and continued daily for 4 days into fresh changed media until day 8 assessed as Liver stage (LS) activity by measuring prophylactic mode by immunofluorescent staining analysis; type: functional, organism-based; conditions: Hepatocyte
Plasmodium cynomolgi [6] = assay: Antiplasmodial activity against hypnozoite Plasmodium cynomolgi B strain infected in Macaca mulatta hepatocytes incubated with sporozoite containing salivary gland homogenate obtained from dissected Anopheles dirus mosquitoes (infected with Plasmodium cynomolgi B strain) treatment started on day 4 post infection and continued daily for 4 days into fresh changed media until day 8 assessed as Liver stage (LS) activity by measuring radical cure mode by immunofluorescent staining analysis; type: functional, organism-based; conditions: Hepatocyte
Plasmodium cynomolgi [7] = assay: Antiplasmodial activity against schizont Plasmodium cynomolgi B strain infected in Macaca mulatta hepatocytes incubated with sporozoite containing salivary gland homogenate obtained from dissected Anopheles dirus mosquitoes (infected with Plasmodium cynomolgi B strain) treatment started on day 4 post infection and continued daily for 4 days into fresh changed media until day 8 assessed as Liver stage (LS) activity by measuring radical cure mode by immunofluorescent staining analysis; type: functional, organism-based; conditions: Hepatocyte
[8] = Selectivity index, ratio of CC50 for Macaca mulatta hepatocytes to IC50 for antiplasmodial activity against hypnozoite Plasmodium cynomolgi B strain infected in Macaca mulatta hepatocytes incubated with sporozoite containing salivary gland homogenate obtained from dissected Anopheles dirus mosquitoes (infected with Plasmodium cynomolgi B strain) treatment started on day 4 post infection and continued daily for 4 days into fresh changed media until day 8 assessed as Liver stage (LS) activity by measuring prophylactic mode by immunofluorescent staining analysis; type: toxicity, cell-based; conditions: rhesus monkey, read-out: Selectivity Index
[9] = Selectivity index, ratio of CC50 for Macaca mulatta hepatocytes to IC50 for antiplasmodial activity against schizont Plasmodium cynomolgi B strain infected in Macaca mulatta hepatocytes incubated with sporozoite containing salivary gland homogenate obtained from dissected Anopheles dirus mosquitoes (infected with Plasmodium cynomolgi B strain) treatment started on day 4 post infection and continued daily for 4 days into fresh changed media until day 8 assessed as Liver stage (LS) activity by measuring prophylactic mode by immunofluorescent staining analysis; type: toxicity, cell-based; conditions: rhesus monkey, read-out: Selectivity Index
[10] = Selectivity index, ratio of CC50 for Macaca mulatta hepatocytes to IC50 for antiplasmodial activity against hypnozoite Plasmodium cynomolgi B strain infected in Macaca mulatta hepatocytes incubated with sporozoite containing salivary gland homogenate obtained from dissected Anopheles dirus mosquitoes (infected with Plasmodium cynomolgi B strain) treatment started on day 4 post infection and continued daily for 4 days into fresh changed media until day 8 assessed as Liver stage (LS) activity by measuring radical cure mode by immunofluorescent staining analysis; type: toxicity, cell-based; conditions: rhesus monkey, read-out: Selectivity Index
[11] = Selectivity index, ratio of CC50 for Macaca mulatta hepatocytes to IC50 for antiplasmodial activity against schizont Plasmodium cynomolgi B strain infected in Macaca mulatta hepatocytes incubated with sporozoite containing salivary gland homogenate obtained from dissected Anopheles dirus mosquitoes (infected with Plasmodium cynomolgi B strain) treatment started on day 4 post infection and continued daily for 4 days into fresh changed media until day 8 assessed as Liver stage (LS) activity by measuring radical cure mode by immunofluorescent staining analysis; type: toxicity, cell-based; conditions: rhesus monkey, read-out: Selectivity Index
[12] = Toxicity in CF1 mouse infected with asexual blood-stage (ABS) Plasmodium yoelii MRA-428 assessed as hunching at 0.3 to 30 mg/kg, po treated 24 hrs post infection measured after 4 days; type: organism-based; conditions: in vivo, 96 h, dose 0.3-30 mg/kg, time 4 day
[13] = Toxicity in CF1 mouse infected with asexual blood-stage (ABS) Plasmodium yoelii MRA-428 assessed as hyperactivity at 0.3 to 30 mg/kg, po treated 24 hrs post infection measured after 4 days; type: organism-based; conditions: in vivo, 96 h, dose 0.3-30 mg/kg, time 4 day
[14] = Toxicity in CF1 mouse infected with asexual blood-stage (ABS) Plasmodium yoelii MRA-428 assessed as lethargy at 0.3 to 30 mg/kg, po treated 24 hrs post infection measured after 4 days; type: organism-based; conditions: in vivo, 96 h, dose 0.3-30 mg/kg, time 4 day
[15] = Toxicity in CF1 mouse infected with asexual blood-stage (ABS) Plasmodium yoelii MRA-428 assessed as ruffled hair at 0.3 to 30 mg/kg, po treated 24 hrs post infection measured after 4 days; type: organism-based; conditions: in vivo, 96 h, dose 0.3-30 mg/kg, time 4 day
[16] = Toxicity in CF1 mouse infected with asexual blood-stage (ABS) Plasmodium yoelii MRA-428 assessed as weight loss at 0.3 to 30 mg/kg, po treated 24 hrs post infection measured after 4 days; type: organism-based; conditions: in vivo, 96 h, dose 0.3-30 mg/kg, time 4 day
Hepatocyte = assay: Cytotoxicity against Macaca mulatta hepatocytes assessed as cell viability measured after 48 hrs by MTT assay; type: toxicity, cell-based; conditions: rhesus monkey, 48 h
[17] = human, microsomes, 1 h
[18] = mouse, microsomes, 1 h
Plasmodium yoelii = assay: In vivo antiplasmodial activity against asexual blood-stage (ABS) Plasmodium yoelii MRA-428 infected in 4-day suppression CF1 mouse model assessed as reduction in parasitemia treated 24 hrs post infection daily measured on day 4; type: functional
[19] = Toxicity in CF1 mouse infected with asexual blood-stage (ABS) Plasmodium yoelii MRA-428 assessed as clinical toxicity at 0.3 to 30 mg/kg, po treated 24 hrs post infection measured after 4 days; type: organism-based; conditions: in vivo, dose 0.3-30 mg/kg
[20] = Toxicity in CF1 mouse infected with asexual blood-stage (ABS) Plasmodium yoelii MRA-428 assessed as behavioural change at 0.3 to 30 mg/kg, po treated 24 hrs post infection measured after 4 days; type: organism-based; conditions: in vivo, dose 0.3-30 mg/kg

SMILES	IC50 (Plasmodium falciparum [1])	IC50 (Plasmodium falciparum [2])	IC50 (Plasmodium falciparum [3])	IC50 (HepG2)	IC50 (Plasmodium cynomolgi [4])	IC50 (Plasmodium cynomolgi [5])	IC50 (Plasmodium cynomolgi [6])	IC50 (Plasmodium cynomolgi [7])	selectivity ratio at 96 h [8]	selectivity ratio at 96 h [9]	selectivity ratio at 96 h [11]	Activity [12]	Activity [13]	Activity [14]	Activity [15]	Activity [16]	CC50 (Hepatocyte)	t1/2 [17]	CLH [18]	Activity [19]	also measured
O=c1c2c([nH]c3cc(Oc4cccc(OC(F)(F)F)c4)ccc13)CCCC2	0.116 nM	0.537 nM	4.38 nM	> 200 µM	4640 nM	600 nM	7.99 µM	6.87 µM	2.18	16.8	1.47	Non-toxic	Non-toxic	Non-toxic	Non-toxic	Non-toxic	10.1 µM	> 60 min	29.7 µL/min/mg	–	selectivity ratio at 96 h [10]: 1.25
CCN(CC)CCCOc1ccc2c(=O)c3c([nH]c2c1)CCCC3	> 2500 nM	> 2500 nM	> 2500 nM	–	> 20000 nM	11000 nM	> 20 µM	> 20 µM	–	> 1.82	–	Non-toxic	Non-toxic	Non-toxic	Non-toxic	Non-toxic	> 20 µM	> 60 min	> 500 µL/min/mg	–	–
CCN(CC)CCOc1ccc2c(=O)c3c([nH]c2c1)CCCC3	> 2500 nM	> 2500 nM	> 2500 nM	–	> 20000 nM	14000 nM	> 20 µM	> 20 µM	–	> 1.43	–	Non-toxic	Non-toxic	Non-toxic	Non-toxic	Non-toxic	> 20 µM	> 60 min	> 500 µL/min/mg	–	–
CC(C)(C)OC(=O)N1CCC(Oc2ccc3c(=O)c4c(F)cc(Cl)cc4[nH]c3c2)C1 (configuration not stated)	–	0.183 nM	113 nM	> 2.5 µM	670 nM	70 nM	2.48 µM	0.96 µM	18.4	176	12.8	–	–	–	–	–	12.3 µM	> 60 min	< 3.125 µL/min/mg	Non-toxic	selectivity ratio at 96 h [10]: 4.96; ED50 (Plasmodium yoelii): 0.1 mg/kg; ED90 (Plasmodium yoelii): 0.43 mg/kg; Activity [20]: Non-toxic
O=c1c2ccc(OCc3ccc(C(F)(F)F)cc3)cc2[nH]c2cc(Cl)cc(F)c12	5.2e-05 nM	0.182 nM	34.9 nM	153 µM	640 nM	140 nM	0.91 µM	0.81 µM	3.33	15.2	2.63	–	–	–	–	–	2.13 µM	> 60 min	< 3.125 µL/min/mg	Non-toxic	selectivity ratio at 96 h [10]: 2.34; ED50 (Plasmodium yoelii): 0.32 mg/kg; ED90 (Plasmodium yoelii): 1.42 mg/kg; Activity [20]: Non-toxic
O=c1c2c([nH]c3c(Oc4ccc(OC(F)(F)F)cc4)cccc13)CCCC2	57.5 nM	83.8 nM	219 nM	> 200 µM	13100 nM	7630 nM	> 20 µM	17.9 µM	> 1.53	> 2.62	> 1.12	Non-toxic	Non-toxic	Non-toxic	Non-toxic	Non-toxic	> 20 µM	> 60 min	6.85 µL/min/mg	–	–
O=c1c2ccc(Oc3cccc(OC(F)(F)F)c3)cc2[nH]c2cc(Cl)cc(F)c12	0.07 nM	0.02 nM	8.6 nM	> 200 µM	560 nM	30 nM	> 20 µM	16.1 µM	> 35.7	> 667	> 1.24	–	–	–	–	–	> 20 µM	–	273 µL/min/mg	Non-toxic	ED50 (Plasmodium yoelii): 0.19 mg/kg; ED90 (Plasmodium yoelii): 0.9 mg/kg; Activity [20]: Non-toxic
CCN(CC)CCCC(C)Nc1ccnc2cc(Cl)ccc12 (configuration not stated) [CHLOROQUINE]	–	–	–	–	–	–	–	–	–	–	–	–	–	–	–	–	–	–	–	Non-toxic	Activity [20]: Non-toxic
